Source: patent US20240316165A1, “POLYNUCLEOTIDES ENCODING PROPIONYL-COA CARBOXYLASE ALPHA AND BETA SUBUNITS FOR THE TREATMENT OF PROPIONIC ACIDEMIA” (ModernaTX, Inc., priority 2021, published 2024)

Test: tissue kinetics of the components of the drug product in rodents
Format: in vivo
Settings: tissue (tissue with the maximum mean value; not named), read-out: maximum mean tissue terminal-phase elimination half-life (t1/2) (converted)
Experimental: An initial dosing interval of q3W is proposed on the basis of the duration of biomarker response observed in pharmacology studies in Peca−/−(A138T) mice. Specifically, at the minimum efficacious dose level of 0.5 mg/kg, decreases in plasma disease biomarkers were sustained for 3 weeks before rebounding toward pretreatment levels in propionic acidemia mice. The potential for drug product accumulation is considered low, with the planned clinical dosing regimen based on the kinetics of the components of the drug product.

## CCCCCCCCCOC(=O)CCCCCCCN(CCO)CCCCCCCC(=O)OC(CCCCCCCC)CCCCCCCC [Compound II]
  half-life: 54.4 h
